One experiment relates to DOHH2 cells. Briefly: Cell proliferation assay (MTS), DOHH2 cells, 120 h. The experiment is classed as cell-based. The following applies: Homo sapiens, DOHH-2, 120 h. In short, it runs like this:
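Cells in RPMI-1640 with 10% FBS were seeded at 5000/well, left overnight at 37° C., 5% CO2, then exposed to compound at 10000 down to 1.5 nM (nine concentrations) for 72 h (RS4;11) or 120 h (DOHH2). Viability was read by MTS, 2 h, absorbance at 490/650 nm; IC50 calculated.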

In a further experiment the test system is RS4;11 cells. The experiment in a line: Cell proliferation assay (MTS), RS4;11 cells, 72 h. In kind it is cell-based. The following applies: Homo sapiens, RS4-11, 72 h. The source says: Cell Proliferation Assays
MTS testing kit was purchased from Promega. The RPMI-1640, Fetal bovine serum and Penicillin-Streptomycin were purchased from Gibco. Dimethyl sulfoxide (DMSO) was purchased from Sigma.
To investigate whether a compound is able to inhibit the activity of BCL-2 in cells, a mechanism-based assay using DOHH2 (DSMZ No.® ACC 47) and RS4;11 (ATCC® CRL-1873™) cell was developed. In this assay, inhibition of Bcl-2 was detected by the inhibition of DOHH2 cells proliferation. DOHH2 cells were cultured in culture flasks to 40-80% confluence in RPMI-1640 plus 10% fetal bovine serum. Cells were collected and plated onto 96-well plates at desired cell density (5000 cells/well). Plates were incubated overnight at 37° C., with 5% CO2 to adhere. Compounds were added to the plates, and the final compound concentrations were 10000, 3333, 1111, […], 124, 41, 14, 4.6 and 1.5 nM. Plates plated with DOHH2 or RS4;11 cells were placed at 37° C., with 5% CO2 for 120 h (DOHH2) or 72 h (RS4;11) respectively. 20 μl MTS/100 μl medium mixture solution were added to each well and incubate the plates for exactly 2 hours. The reaction was stopped by adding 25 μl 10% SDS per well. Measure absorbance at 490 nm and 650 nm (reference wavelength). IC50 was calculated using GraphPad Prism 5.0.
Select compounds prepared as described above were assayed according to the biological procedures described herein.

pIC50: −log10 of the molar value.

In general, pIC50 refers to the negative decadic logarithm of the IC50, by convention in mol/L. Low readings indicate a large IC50, high ones a small IC50.

Take `CC1(C)CCC(CN2CCN(c3ccc(C(=O)NS(=O)(=O)c4cc5c(c([N+](=O)[O-])c4)N[C@@H](CN4CC(C)(O)C4)CO5)c(Oc4cnc5[nH]ccc5c4)c3)CC2)=C(c2ccc(Cl)cc2)C1` [Example 2-25, (S)-2-((1H-pyrrolo[2,3-b]pyridin-5-yl)oxy)-4-(4-((4′-chloro-5,5-dimethyl-3,4,5,6-tetra-hydro-[1,1′-biphenyl]-2-yl)methyl)piperazin-1-yl)-N-((3-((3-hydroxy-3-methylazetidin-1-yl)methyl)-5-nitro-3,4-dihydro-2H-ben-zo[b][1,4]oxazin-7-yl)sulfonyl)benzamide]: the pIC50 is 8.00 in the experiment on DOHH2 cells and 8.10 in the experiment on RS4;11 cells.

Consider `CC1(C)CCC(CN2CCN(c3ccc(C(=O)NS(=O)(=O)c4cc5c(c([N+](=O)[O-])c4)N[C@@H](COC4CCOCC4)CO5)c(Oc4cnc5[nH]ccc5c4)c3)CC2)=C(c2ccc(Cl)cc2)C1` [Example 2-183, (S)-2-((1H-pyrrolo[2,3-b]pyridin-5-yl)oxy)-4-(4-((4′-chloro-5,5-dimethyl-3,4,5,6-tetra-hydro-[1,1′-biphenyl]-2-yl)methyl)piperazin-1-yl)-N-((5-nitro-3-(((tetrahydro-2H-pyran-4-yl)oxy)methyl)-3,4-dihydro-2H-benzo [b][1,4]oxazin-7-yl)sulfonyl)benzamide], for which the results for the pIC50 in the experiment with DOHH2 cells and in the experiment with RS4;11 cells were 7.70 and 8.40, respectively.

For `COc1ccc(C[C@@H]2COc3cc(S(=O)(=O)NC(=O)c4ccc(N5CCN(CC6=C(c7ccc(Cl)cc7)CC(C)(C)CC6)CC5)cc4Oc4cnc5[nH]ccc5c4)cc([N+](=O)[O-])c3N2)nc1` [Example 2-200, (R)-2-((1H-pyrrolo[2,3-b]pyridin-5-yl)oxy)-4-(4-((4′-chloro-5,5-dimethyl-3,4,5,6-tetra-hydro-[1,1′-biphenyl]-2-yl)methyl)piperazin-1-yl)-N-((3-((5-methoxypyridin-2-yl)meth-yl)-5-nitro-3,4-dihydro-2H-benzo[b][1,4]oxazin-7-yl)sulfonyl)benzamide], the pIC50 in the experiment with DOHH2 cells was 6.66; with RS4;11 cells, 8.52.

As for `CC1(C)CCC(CN2CCN(c3ccc(C(=O)NS(=O)(=O)c4cc5c(c([N+](=O)[O-])c4)N[C@@H](CN4CCC(C)(O)CC4)CO5)c(Oc4cnc5[nH]ccc5c4)c3)CC2)=C(c2ccc(Cl)cc2)C1` [Example 2-19, (S)-2-((1H-pyrrolo[2,3-b]pyridin-5-yl)oxy)-4-(4-((4′-chloro-5,5-dimethyl-3,4,5,6-tetra-hydro-[1,1′-biphenyl]-2-yl)methyl)piperazin-1-yl)-N-((3-((4-hydroxy-4-methylpiperidin-1-yl)methyl)-5-nitro-3,4-dihydro-2H-ben-zo[b][1,4]oxazin-7-yl)sulfonyl)benzamide], the values for the pIC50 with DOHH2 cells and in the experiment with RS4;11 cells were 7.15 and 7.44, respectively.

As for `CC1(C)CCC(c2ccc(Cl)cc2)=C(CN2CCN(c3ccc(C(=O)NS(=O)(=O)c4cc5c(c([N+](=O)[O-])c4)N[C@@H](CC4CCOCC4)CO5)c(Oc4cnc5[nH]ccc5c4)c3)CC2)C1` [Example 2-235, (S)-2-((1H-pyrrolo[2,3-b]pyridin-5-yl)oxy)-4-(4-((4′-chloro-4,4-dimethyl-3,4,5,6-tetra-hydro-[1,1′-biphenyl]-2-yl)methyl)piperazin-1-yl)-N-((5-nitro-3-((tetrahydro-2H-pyran-4-yl)methyl)-3,4-dihdyro-2H-benzo[b] [1,4]oxazin-7-yl)sulfonyl)benzamide], the pIC50 with DOHH2 cells was 7.64; in the experiment on RS4;11 cells, 8.00.

Regarding `COC(=O)N1CCC([C@H]2COc3cc(S(=O)(=O)NC(=O)c4ccc(N5CCN(CC6=C(c7ccc(Cl)cc7)CC(C)(C)CC6)CC5)cc4Oc4cnc5[nH]ccc5c4)cc([N+](=O)[O-])c3N2)CC1` [Example 2-230, methyl (S)-4-(7-(N-(2-((1H-pyrrolo[2,3-b]pyridin-5-yl)oxy)-4-(4-((4′-chloro-5,5-dimethyl-3,4,5,6-tetrahydro-[1,1′-biphenyl]-2-yl)methyl)piperazin-1-yl)benzoyl)sulfamoyl)-5-nitro-3,4-dihydro-2H-benzo[b][1,4]oxazin-3-yl) piperidine-1-carboxylate], the pIC50 was 8.70 with DOHH2 cells and 9.00 with RS4;11 cells.

`CC1(C)CCC(CN2CCN(c3ccc(C(=O)NS(=O)(=O)c4cc5c(c([N+](=O)[O-])c4)N[C@H](CC4CCOCC4)CO5)c(Oc4cnc5[nH]ccc5c4)c3)CC2)=C(c2ccc(Cl)cc2)C1` [Example 2-181, (R)-2-((1H-pyrrolo[2,3-b]pyridin-5-yl)oxy)-4-(4-((4′-chloro-5,5-dimethyl-3,4,5,6-tetra-hydro-[1,1′-biphenyl]-2-yl)methyl)piperazin-1-yl)-N-((5-nitro-3-((tetrahydro-2H-pyran-4-yl)methyl)-3,4-dihydro-2H-benzo[b] [1,4]oxazin-7-yl)sulfonyl)benzamide]: the pIC50 in the experiment with DOHH2 cells is 7.08; in the experiment with RS4;11 cells, 7.35.

Take `CC1(C)CCC(CN2CCN(c3ccc(C(=O)NS(=O)(=O)c4cc5c(c([N+](=O)[O-])c4)N[C@H](CCN4CCOCC4)C5)c(Oc4cnc5[nH]ccc5c4)c3)CC2)=C(c2ccc(Cl)cc2)C1` [Example 1-2, (S)-2-((1H-pyrrolo[2,3-b]pyridin-5-yl)oxy)-4-(4-((4′-chloro-5,5-dimethyl-3,4,5,6-tetrahydro-[1,1′-biphenyl]-2-yl)methyl)piperazin-1-yl)-N-((2-(2-morpholinoethyl)-7-nitroindolin-5-yl)sulfonyl)benzamide]: the pIC50 in the experiment on DOHH2 cells is 7.10; with RS4;11 cells it was 7.42.

With `CC(=O)N1CCC([C@H]2COc3cc(S(=O)(=O)NC(=O)c4ccc(N5CCN(CC6=C(c7ccc(Cl)cc7)CC(C)(C)CC6)CC5)cc4Oc4cnc5[nH]ccc5c4)cc([N+](=O)[O-])c3N2)CC1` [Example 2-231, (S)-2-((1H-pyrrolo[2,3-b]pyridin-5-yl)oxy)-N-((3-(1-acetylpiperidin-4-yl)-5-nitro-3,4-dihydro-2H-benzo[b][1,4]oxazin-7-yl)sulfonyl)-4-(4-((4′-chloro-5,5-dimethyl-3,4,5,6-tetrahydro-[1,1′-biphenyl]-2-yl)methyl)pi-perazin-1-yl)benzamide], the pIC50 is 8.30 with DOHH2 cells and 9.00 in the experiment on RS4;11 cells.

As for `CC1(C)CCC(CN2CCN(c3ccc(C(=O)NS(=O)(=O)c4cc5c(c([N+](=O)[O-])c4)N[C@H](CCN4CCP(C)(=O)CC4)CO5)c(Oc4cnc5[nH]ccc5c4)c3)CC2)=C(c2ccc(Cl)cc2)C1` [Example 2-155, (R)-2-((1H-pyrrolo[2,3-b]pyridin-5-yl)oxy)-4-(4-((4′-chloro-5,5-dimethyl-3,4,5,6-tetra-hydro-[1,1′-biphenyl]-2-yl)methyl)piperazin-1-yl)-N-((3-(2-(4-methyl-4-oxido-1,4-aza-phosphinan-1-yl)ethyl)-5-nitro-3,4-dihydro-2H-benzo[b][1,4]oxazin-7-yl)sulfonyl) benzamide], the values for the pIC50 with DOHH2 cells and in the experiment on RS4;11 cells were 6.34 and 7.18, respectively.

As for `CC1(C)CCC(CN2CCN(c3ccc(C(=O)NS(=O)(=O)c4cc5c(c([N+](=O)[O-])c4)N[C@H](CN=S4(=O)CCCC4)CO5)c(Oc4cnc5[nH]ccc5c4)c3)CC2)=C(c2ccc(Cl)cc2)C1` [Example 2-71, (R)-2-((1H-pyrrolo[2,3-b]pyridin-5-yl)oxy)-4-(4-((4′-chloro-5,5-dimethyl-3,4,5,6-tetra-hydro-[1,1′-biphenyl]-2-yl)methyl)piperazin-1-yl)-N-((5-nitro-3-(((1-oxidotetrahydro-1λ^6-thiophen-1-ylidene)amino)methyl)-3,4-dihydro-2H-benzo[b][1,4]oxazin-7-yl)sulfo-nyl)benzamide], the results for the pIC50 in the experiment on DOHH2 cells and in the experiment on RS4;11 cells were 7.37 and 7.24, respectively.

The values are drawn from patent publication US11091478B2 (Fochon Pharmaceuticals, Ltd., priority 2017, dated 2021).
